Here are results for 17 molecules from paper PMC4042160, “In silico, in vitro and cellular analysis with a kinome-wide inhibitor panel correlates cellular LRRK2 dephosphorylation to inhibitor activity on LRRK2” (Frontiers in Molecular Neuroscience, 2014).

The target of experiment [1] is T1, GST-tagged truncated LRRK2 containing residues 970 to 2527 (Homo sapiens, UniProt Q5S007).
T1 construct: GST-tagged truncated LRRK2 containing residues 970 to 2527 (Life Technologies); purchased Life Technologies
Kind of experiment: In vitro LRRKtide peptide-substrate kinase assay, single dose testing (10 μM). As to conditions: LRRKtide assay @ 10 μM inhibitor; GST-LRRK2 970-2527; 10 μM ATP; mean, N = 3; solvent control = 100%. In kind it is biochemical.

The next experiment addresses T2, LRRK2 phospho-Ser935 (Homo sapiens, UniProt Q5S007).
T2 construct: expressed in transfected cells
Kind of experiment: Cellular LRRK2 phosphoserine 935 dephosphorylation spotblot assay in SH-SY5Y cells stably expressing 3xFlag-LRRK2. Type of experiment: cell-based. The conditions noted are these: @ 5 μM for 2 h; SH-SY5Y stably expressing LRRK2; pS935/total LRRK2.

Each structure is given as a SMILES string.

T1 sequence (Q5S007 970-2527): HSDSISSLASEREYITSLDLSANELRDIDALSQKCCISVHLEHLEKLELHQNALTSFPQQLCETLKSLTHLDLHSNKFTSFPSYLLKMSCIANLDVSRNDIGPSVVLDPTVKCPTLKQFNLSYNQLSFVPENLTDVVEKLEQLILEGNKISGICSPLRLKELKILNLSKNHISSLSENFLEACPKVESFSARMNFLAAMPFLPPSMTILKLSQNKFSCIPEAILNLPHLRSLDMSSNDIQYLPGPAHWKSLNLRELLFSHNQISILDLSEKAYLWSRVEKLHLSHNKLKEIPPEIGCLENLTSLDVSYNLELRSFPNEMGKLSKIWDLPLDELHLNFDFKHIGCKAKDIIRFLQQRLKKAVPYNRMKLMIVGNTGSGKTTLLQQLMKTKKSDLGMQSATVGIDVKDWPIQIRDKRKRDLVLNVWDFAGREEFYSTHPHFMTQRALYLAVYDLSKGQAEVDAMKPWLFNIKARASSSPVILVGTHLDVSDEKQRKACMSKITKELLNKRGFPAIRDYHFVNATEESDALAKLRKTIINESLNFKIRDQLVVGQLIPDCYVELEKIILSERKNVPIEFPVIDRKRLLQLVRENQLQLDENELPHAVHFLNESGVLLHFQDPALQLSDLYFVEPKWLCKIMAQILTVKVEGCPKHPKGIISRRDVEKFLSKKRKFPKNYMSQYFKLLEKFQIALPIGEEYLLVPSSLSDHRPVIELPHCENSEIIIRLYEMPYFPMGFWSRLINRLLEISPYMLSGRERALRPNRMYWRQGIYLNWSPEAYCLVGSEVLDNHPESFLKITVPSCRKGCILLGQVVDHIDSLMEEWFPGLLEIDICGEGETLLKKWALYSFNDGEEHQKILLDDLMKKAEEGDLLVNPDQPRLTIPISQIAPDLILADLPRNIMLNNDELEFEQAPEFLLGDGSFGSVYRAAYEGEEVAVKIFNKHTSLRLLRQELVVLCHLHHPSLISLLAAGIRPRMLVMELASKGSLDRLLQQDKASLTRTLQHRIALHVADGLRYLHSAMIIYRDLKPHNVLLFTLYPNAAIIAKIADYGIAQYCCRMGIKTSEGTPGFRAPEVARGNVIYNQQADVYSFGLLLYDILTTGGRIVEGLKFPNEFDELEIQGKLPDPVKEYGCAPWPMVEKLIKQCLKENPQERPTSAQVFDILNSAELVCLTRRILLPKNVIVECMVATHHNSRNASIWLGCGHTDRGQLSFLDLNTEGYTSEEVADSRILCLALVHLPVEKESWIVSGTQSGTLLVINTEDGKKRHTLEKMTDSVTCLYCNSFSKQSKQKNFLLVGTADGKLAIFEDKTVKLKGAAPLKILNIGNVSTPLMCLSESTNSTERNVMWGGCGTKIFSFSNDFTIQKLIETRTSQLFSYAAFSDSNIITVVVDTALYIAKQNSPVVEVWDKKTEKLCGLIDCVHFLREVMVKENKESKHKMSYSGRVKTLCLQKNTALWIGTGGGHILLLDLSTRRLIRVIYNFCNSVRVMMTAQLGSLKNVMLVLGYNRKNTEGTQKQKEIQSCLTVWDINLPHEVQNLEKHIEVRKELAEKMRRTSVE
T2 sequence (Q5S007 whole entry): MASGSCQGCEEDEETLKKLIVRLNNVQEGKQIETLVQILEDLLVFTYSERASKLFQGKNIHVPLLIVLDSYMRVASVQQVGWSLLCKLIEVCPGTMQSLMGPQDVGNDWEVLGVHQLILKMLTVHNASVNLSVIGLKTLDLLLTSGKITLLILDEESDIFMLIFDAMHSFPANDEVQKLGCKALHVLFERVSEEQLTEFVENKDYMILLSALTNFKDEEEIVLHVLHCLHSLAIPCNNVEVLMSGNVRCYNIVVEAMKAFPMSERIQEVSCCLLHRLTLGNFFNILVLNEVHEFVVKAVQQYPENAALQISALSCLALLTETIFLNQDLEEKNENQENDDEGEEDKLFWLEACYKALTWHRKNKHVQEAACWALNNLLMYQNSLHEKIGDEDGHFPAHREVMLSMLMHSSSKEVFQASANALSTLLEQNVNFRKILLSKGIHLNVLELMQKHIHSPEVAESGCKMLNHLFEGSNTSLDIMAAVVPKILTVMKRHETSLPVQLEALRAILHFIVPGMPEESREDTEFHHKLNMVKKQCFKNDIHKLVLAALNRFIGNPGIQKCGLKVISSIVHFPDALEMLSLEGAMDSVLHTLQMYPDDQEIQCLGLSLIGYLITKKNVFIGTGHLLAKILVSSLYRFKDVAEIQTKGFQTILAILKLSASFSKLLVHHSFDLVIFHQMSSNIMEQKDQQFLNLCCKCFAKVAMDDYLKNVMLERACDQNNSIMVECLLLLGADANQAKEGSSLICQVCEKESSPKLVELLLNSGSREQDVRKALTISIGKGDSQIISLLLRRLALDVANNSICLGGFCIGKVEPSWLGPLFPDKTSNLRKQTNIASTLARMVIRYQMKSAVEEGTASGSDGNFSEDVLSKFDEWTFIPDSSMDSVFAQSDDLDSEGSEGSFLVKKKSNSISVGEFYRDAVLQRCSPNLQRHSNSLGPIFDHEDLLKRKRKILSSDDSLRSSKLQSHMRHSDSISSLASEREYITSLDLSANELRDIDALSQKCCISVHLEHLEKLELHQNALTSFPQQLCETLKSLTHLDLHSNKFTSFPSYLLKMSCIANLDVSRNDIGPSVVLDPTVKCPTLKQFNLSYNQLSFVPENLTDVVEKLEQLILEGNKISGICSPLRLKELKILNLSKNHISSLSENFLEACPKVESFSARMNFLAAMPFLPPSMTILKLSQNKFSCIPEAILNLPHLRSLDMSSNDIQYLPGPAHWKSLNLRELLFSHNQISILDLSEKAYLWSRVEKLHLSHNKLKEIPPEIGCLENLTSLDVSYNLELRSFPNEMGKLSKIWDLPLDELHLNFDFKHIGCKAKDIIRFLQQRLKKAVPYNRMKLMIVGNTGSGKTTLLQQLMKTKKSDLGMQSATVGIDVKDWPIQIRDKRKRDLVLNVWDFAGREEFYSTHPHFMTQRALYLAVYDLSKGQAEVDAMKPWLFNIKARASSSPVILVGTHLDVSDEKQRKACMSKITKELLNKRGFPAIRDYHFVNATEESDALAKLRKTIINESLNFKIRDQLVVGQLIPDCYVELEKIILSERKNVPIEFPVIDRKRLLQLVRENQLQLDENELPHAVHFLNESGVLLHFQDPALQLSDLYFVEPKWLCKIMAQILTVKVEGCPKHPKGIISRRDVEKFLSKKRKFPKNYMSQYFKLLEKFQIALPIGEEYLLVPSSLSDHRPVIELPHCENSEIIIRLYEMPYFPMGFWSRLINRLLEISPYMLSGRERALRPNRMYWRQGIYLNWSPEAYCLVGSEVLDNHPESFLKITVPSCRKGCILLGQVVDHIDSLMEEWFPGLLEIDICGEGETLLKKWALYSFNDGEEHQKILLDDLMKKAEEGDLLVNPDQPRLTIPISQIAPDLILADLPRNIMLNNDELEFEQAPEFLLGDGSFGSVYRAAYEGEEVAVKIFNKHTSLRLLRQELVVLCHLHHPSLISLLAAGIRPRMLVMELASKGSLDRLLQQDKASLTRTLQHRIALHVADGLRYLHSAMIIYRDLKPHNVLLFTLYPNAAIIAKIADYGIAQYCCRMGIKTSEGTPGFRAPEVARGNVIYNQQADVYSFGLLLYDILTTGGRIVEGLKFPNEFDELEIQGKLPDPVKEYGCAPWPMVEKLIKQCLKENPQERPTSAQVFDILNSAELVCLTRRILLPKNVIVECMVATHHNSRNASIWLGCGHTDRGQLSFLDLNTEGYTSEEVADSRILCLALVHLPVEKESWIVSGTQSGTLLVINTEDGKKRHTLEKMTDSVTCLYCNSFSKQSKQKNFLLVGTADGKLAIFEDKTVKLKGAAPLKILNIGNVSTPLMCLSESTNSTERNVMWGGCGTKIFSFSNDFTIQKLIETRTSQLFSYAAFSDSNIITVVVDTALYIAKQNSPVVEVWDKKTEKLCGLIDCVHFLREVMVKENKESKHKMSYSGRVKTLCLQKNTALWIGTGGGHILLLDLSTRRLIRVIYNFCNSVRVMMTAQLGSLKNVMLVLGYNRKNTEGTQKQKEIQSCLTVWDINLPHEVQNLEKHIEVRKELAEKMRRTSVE

Turning to `CO[C@H]1[C@@H](OC)C[C@H](C)[C@@H](OC)C2=CC(=O)C=C(NC(=O)/C(C)=C/C=C\[C@H](OC)[C@@H](OC(N)=O)/C(C)=C/[C@@H]1C)C2=O` [Herbimycin A, Streptomyces sp., Herbimycin A], the “% LRRKtide phosphorylation relative to solvent” value in experiment [1] was found to be 103.97%. For the same molecule, the “Phosphorylation level relative to solvent (%) (cellular pS935 assay)” value at LRRK2 phospho-Ser935 worked out at 92.79%.

`COc1ccc(Cl)cc1NC(=O)Nc1cc(C)nc2ccccc12` [IGF-1R inhibitor II]: the “% LRRKtide phosphorylation relative to solvent” value in experiment [1] worked out at 93.23%. Besides, the “Phosphorylation level relative to solvent (%) (cellular pS935 assay)” value at LRRK2 phospho-Ser935 is recorded as 80.40%.

As to `NC(=O)Nc1sc(-c2ccc(F)cc2)cc1C(N)=O` [IKK-2 inhibitor IV], the “% LRRKtide phosphorylation relative to solvent” value in experiment [1] turned out to be 5.13%. For the same molecule, on LRRK2 phospho-Ser935, the “Phosphorylation level relative to solvent (%) (cellular pS935 assay)” value turned out to be 108.38%.

For the molecule `O=C(Nc1nc2ccccc2n1CCN1CCOCC1)c1cccc([N+](=O)[O-])c1` [IRAK-1/4 inhibitor], the “% LRRKtide phosphorylation relative to solvent” value in experiment [1] is recorded as 55.78%. Besides, at LRRK2 phospho-Ser935, the “Phosphorylation level relative to solvent (%) (cellular pS935 assay)” value was determined as 71.83%.

`O=C1NC(=O)c2c1c1c3ccccc3[nH]c1n1cncc21` [Isogranulatimide]: the “% LRRKtide phosphorylation relative to solvent” value in experiment [1] was determined as 4.64%. Also, at LRRK2 phospho-Ser935, the “Phosphorylation level relative to solvent (%) (cellular pS935 assay)” value was determined as 77.38%.

`CC(C)N(CCC(=O)c1ccc2ccccc2c1)Cc1ccccc1` [JAK3 inhibitor IV]: in experiment [1], the “% LRRKtide phosphorylation relative to solvent” value is reported as 90.96%. In addition, the “Phosphorylation level relative to solvent (%) (cellular pS935 assay)” value at LRRK2 phospho-Ser935 was found to be 63.71%.

For `CC(C)(C)c1nc2c3cc[nH]c(=O)c3c3cc(F)ccc3c2[nH]1` [JAK inhibitor I], the “% LRRKtide phosphorylation relative to solvent” value in experiment [1] stood at 3.20%. Moreover, on LRRK2 phospho-Ser935, the “Phosphorylation level relative to solvent (%) (cellular pS935 assay)” value turned out to be 47.17%.

As to `O=C1c2ccccc2-c2n[nH]c3cccc1c23` [JNK inhibitor II], the “% LRRKtide phosphorylation relative to solvent” value in experiment [1] is given as 2.32%. The “Phosphorylation level relative to solvent (%) (cellular pS935 assay)” value at LRRK2 phospho-Ser935 is on record as 81.52%.

For the molecule `N#Cc1c(NC(=O)c2cccc3ccccc23)sc2c1CCCC2` [JNK inhibitor IX], the “% LRRKtide phosphorylation relative to solvent” value in experiment [1] stood at 61.45%. For the same molecule, the “Phosphorylation level relative to solvent (%) (cellular pS935 assay)” value on LRRK2 phospho-Ser935 was determined as 42.05%.

Regarding `CCOc1nc(NC(=O)Cc2cc(OC)ccc2OC)cc(N)c1C#N` [JNK inhibitor VIII], the “% LRRKtide phosphorylation relative to solvent” value in experiment [1] was 105.45%. Also, on LRRK2 phospho-Ser935, the “Phosphorylation level relative to solvent (%) (cellular pS935 assay)” value is listed as 93.08%.

Take `N#CC(c1ccnc(NCCc2cccnc2)n1)c1nc2ccccc2s1` (stereo not shown) [JNK inhibitor V]: the “% LRRKtide phosphorylation relative to solvent” value in experiment [1] came out at 37.61%. On LRRK2 phospho-Ser935, the “Phosphorylation level relative to solvent (%) (cellular pS935 assay)” value is 71.85%.

Regarding `Cn1nc2c3c(cccc31)C(=O)c1ccccc1-2` [JNK inhibitor, negative control], the “% LRRKtide phosphorylation relative to solvent” value in experiment [1] stood at 17.88%. The “Phosphorylation level relative to solvent (%) (cellular pS935 assay)” value at LRRK2 phospho-Ser935 is 107.46%.

As for `COC(=O)[C@@]1(O)C[C@H]2O[C@]1(C)n1c3ccccc3c3c4c(c5c6ccccc6n2c5c31)C(=O)NC4` [K-252a, Nocardiopsis sp., K-252a], the “% LRRKtide phosphorylation relative to solvent” value in experiment [1] is recorded as 1.13%. Further, the “Phosphorylation level relative to solvent (%) (cellular pS935 assay)” value at LRRK2 phospho-Ser935 was 72.18%.

Turning to `CN([C@@H](Cc1ccc(OS(=O)(=O)c2cccc3cnccc23)cc1)C(=O)N1CCN(c2ccccc2)CC1)S(=O)(=O)c1cccc2cnccc12` [KN-62], in experiment [1], the “% LRRKtide phosphorylation relative to solvent” value is recorded as 17.20%. Also, the “Phosphorylation level relative to solvent (%) (cellular pS935 assay)” value at LRRK2 phospho-Ser935 amounted to 84.73%.

Take `COc1ccc(S(=O)(=O)N(CCO)c2ccccc2CN(C)C/C=C/c2ccc(Cl)cc2)cc1` [KN-93]: the “% LRRKtide phosphorylation relative to solvent” value in experiment [1] was determined as 120.59%. Moreover, at LRRK2 phospho-Ser935, the “Phosphorylation level relative to solvent (%) (cellular pS935 assay)” value was 102.70%.

On to `CCCNC(=O)Nc1ccc(Oc2ncnc3cc(OC)c(OC)cc23)cc1Cl` [KRN63], for which the “% LRRKtide phosphorylation relative to solvent” value in experiment [1] was 68.07%. In addition, the “Phosphorylation level relative to solvent (%) (cellular pS935 assay)” value at LRRK2 phospho-Ser935 amounted to 62.48%.

For the molecule `O=C1Cc2c([nH]c3ccc(Br)cc23)-c2ccccc2N1` [Kenpaullone], the “% LRRKtide phosphorylation relative to solvent” value in experiment [1] came out at 47.16%. Also, the “Phosphorylation level relative to solvent (%) (cellular pS935 assay)” value at LRRK2 phospho-Ser935 is given as 94.10%.
